Read-outs that look alike come from different tables or passages of the source.

One series deals with mtp53 R273H (Homo sapiens, UniProt P04637, R273H). Kind of series: Co-immunoprecipitation assay with purified mtp53 R273H. It counts as binding. The settings on record: anti-p53 antibody sample; molar ratio 1:1; not by normal IgG. As to the method: Anti-p53 DO1 antibody-coupled magnetic beads were used to pull down Cy5p53Tet/mtp53 complex, and normal mouse IgG-coupled magnetic beads were used as a control.
To experimentally determine if Cy5p53Tet binds to mtp53 R273H, a co-immunoprecipitation assay was performed using purified mtp53 mixed with Cy5p53Tet in a molar ratio of 1:1 (FIG. 3C). The co-immunoprecipitation was carried out using anti-p53 antibody or nonspecific IgG.
Co-immunoprecipitation Assay. Magnetic beads were used for co-immunoprecipitation assays, and 50 μL of the bead suspension was placed in each sample. The beads were washed twice with 1×PBS-0.1% Tween-20 by vortexing for 10 s. The beads were resuspended in 1×PBS-0.1% Tween-20 with either 1 μg of anti-p53 DO1 antibody or 1 μg of normal mouse IgG at a final volume of 100 μL. The tubes were incubated at room temperature for 10 min with continuous mixing. The beads were washed three times with 1×PBS-0.1% Tween-20, and 1 μg of purified mtp53 R273H and 100 ng of Cy5p53Tet peptide were incubated with the immobilized antibody at 4° C. for 150 min with constant rotation. Beads were pelleted and then washed with 1 mL 1×PBS-0.1% Tween-20 four times at room temperature. Bound proteins were eluted by incubating in 2×SDS Laemmli sample buffer containing 0.2 M DTT, heated at 95° C. for 10 min, and loaded on 15 or 10% polyacrylamide gel.

Series [1] deals with MCF7 and MDA-MB-468 xenografts. Nature of the series: NIRF imaging of Cy5p53Tet in mice bearing bilateral MCF7/MDA-MB-468 xenografts (in vivo and ex vivo epifluorescence). The settings on record: in vivo, after intravenous administration, 10 nmol.
Description: At 40, 80, and 180 min after injection, mice were sacrificed, and the xenografts were resected and imaged ex vivo (FIG. 2C).
NIRF Imaging of Cy5p53Tet in Mice Bearing Bilateral MCF7/MDA-MB-468 Xenografts. Female athymic nude mice (6-10 weeks old, 01B74-Athymic NCr-nu/nu;) were obtained from Charles River Laboratories. Animals were supplemented with 17β-estradiol with a dose of 0.72 mg/pellet (60-day release) into the neck 7 days before MCF7 cells were subcutaneous implanted. 5×10^6 cells/mouse MCF7 cells were suspended in 100 μL of 1:1 media/matrigel basement membrane matrix (Corning) and injected subcutaneously on the left flank of each mouse (n≥3/group). After 4 weeks, 5×10^6 cells/mouse MDA-MB-468 cells were subcutaneously implanted in the right flank of the mouse in 100 μL of 1:1 media/matrigel basement membrane matrix. Imaging experiments were performed when the tumors reached a volume of ˜50-250 mm^3 (after approximately 3 weeks). Cy5p53Tet (10 nmol) was injected into the tail vein of each mouse. Prior to in vivo imaging, the mice were anesthetized with 1.5-2.0% isoflurane (Baxter Healthcare). Images were collected using an IVIS Spectrum (Perkin Elmer) 12 min, 30 min, and 3 h following the administration of Cy5p53Tet. […] Fluorescence imaging was carried out with excitation and emission wavelengths of 640 and 680 nm, respectively. […]
Another series has as its system MDA-MB-468 cells. The settings on record: 500 nM, 24 h; mtp53 R273H. The method, then: (§1) Three independent experiments with biological replicates were performed for all ±SEM *p-value ≤0.05, **p-value ≤0.01, ***p-value ≤0.001.
(§2) Toxicity to normal cells and tissues represents an important barrier for drug delivery, and an advantage of cell penetrating peptide-based therapies is their low toxicity compared to most drug carriers. To evaluate the toxicity of Cy5p53Tet to breast cancer cells and normal breast mammary epithelial cells, the viability of cells was evaluated following peptide treatment (FIG. 1G).
(§3) Peptidecytotoxicity Assay. A total of 1.25×10^5 cells were seeded in a 12-well plate the day before and grown at 37° C. Cells were treated with 500 nM Cy5p53Tet for 24 h, and 0.1 mL MTT solution [5 mg mL^−1 (3-(4, 5-dimethylthiazolyl-2)-2, 5-diphenyltetrazolium bromide] was added to the cells and incubated at 37° C. for 1 h. The cells were then resuspended in 0.04 N hydrochloric acid diluted in isopropanol and incubated in the dark on a shaker for 5 min at room temperature. The absorbance was quantified at 550 nm, and the background absorbance was subtracted at 620 nm.

The next series relates to HCC70. The settings on record: 500 nM, 24 h; mtp53 R248Q. The method, then:
as §1, §2, §3

Series [2] concerns MDA-MB-468 cells compared to MCF7 cells. The settings on record: 2 h. The method, then:
FlowJo software was used to analyze the cytometric data.
The cellular uptake of Cy5p53Tet in these two cell lines was also measured using flow cytometry.
In Vitro Cy5p53Tet Cellular Uptake by Flow Cytometry. Fluorescence-activated cell-sorting (FACS) was used to determine the cellular uptake of Cy5p53Tet. MCF7 and MDA-MB-468 cells were seeded in six-well plates at a density of 5×10^5 cells/well and incubated at 37° C. overnight. On the following day, media were replaced with fresh media containing vehicle control or 100 or 500 nM Cy5p53Tet and further incubated at 37° C. for 2 h. Cells were washed two times with PBS and trypsinized at 37° C. for 5 min. Trypsin was neutralized by adding media, and the cell suspension was spun down. Cell pellets were washed with PBS and resuspended in PBS. FACS was performed on a FACScan (BD Biosciences), processing 2×10^4 events for each sample.

The next series has as its system MDA-MB-468.shp53 cells. Nature of the series: Cy5p53Tet uptake in MDA-MB-468 shp53 cells with or without mtp53 depletion (live cell imaging). The format is cell-based, Human. The settings on record: 500 nM.
The next series concerns WHIM6 and WHIM25 tumors. Kind of series: SDS-PAGE Cy5 signal of protein extracts from WHIM6 and WHIM25 PDX tumors. It counts as in vivo, NSG mice. The settings on record: SDS-PAGE of tumor extracts.

Description for WHIM6 and WHIM25 tumors: 25 μg of proteins were run on 12% polyacrylamide gel and the Cy5p53Tet peptide accumulated in tumors was scanned at Cy5 channel and quantified. The intensity of Cy5p53Tet peptide was analyzed by ImageJ. p53 and MDM2 protein levels from the WHIM6 and WHIM25 tumors post-injection with Cy5p53Tet peptide at 1 hr, 2 hr and 3 hr were determined by Western blot analysis. 25 ug of proteins were load on 12% SDS-PAGE gel.
First, WHIM6/WHIM25 bilateral PDX tumor-bearing NSG mice were tail vein injected with 10 nmol of Cy5p53Tet peptide to study its delivery efficacy (FIG. 5A). Then, the WHIM6 and WHIM25 tumors were removed at 1, 2, and 3 hr post-injection. Uptake of the Cy5p53Tet peptide in WHIM6 and WHIM25 tumors was assessed on an in vivo epifluorecent imaging system (IVIS). […] The Cy5p53Tet peptide signal was investigated in PDX tumor tissue by extracting proteins from the WHIM6 and WHIM25 tumors post-injection with the Cy5p53Tet peptide at 1 hr, 2 hr, and 3 hr, and the Cy5p53Tet peptide effects were characterized in PDX models (FIG. 5B). Samples were run on 12% polyacrylamide gel and the Cy5p53Tet peptide accumulated in tumors was scanned at Cy5 channel and quantified. […] In addition, p53 and MDM2 protein levels were checked upon Cy5p53Tet peptide treatment in PDX tumors.

On to “H-CysCy5-RKKRRQRRGEYFTLQIRGRERFEMFRELNEALELK-OH (N-terminal Cy5; Synthetic peptide based on p53 protein) [Cy5p53Tet]”, for which the “pull-down of Cy5p53Tet with mtp53 R273H” value with mtp53 R273H is listed as “significantly pulled down”. Further, the “NIRF signal in MCF7 tumors” value in series [1] was “no signal”. Also, the “NIRF signal in MDA-MB-468 tumors” value in series [1] was “clearly observed”. Further, the “mitochondrial activity reduced by” value is 10.6% in the series with MDA-MB-468 cells and 13.6% with HCC70. For the same substance, the results for the “geometric MFI, mtp53-expressing MDA-MB-468 cells vs MCF7 cells” value in series [2] (100 nM) and in series [2] (500 nM) were 1.58 fold and 1.65 fold, respectively. The “reduction of the Cy5p53Tet signal upon mtp53 depletion (relative ROI intensity)” value turned out to be 61% with MDA-MB-468.shp53 cells (30 min), 63% in the series on MDA-MB-468.shp53 cells (2 h) and 67% in the series on MDA-MB-468.shp53 cells (4 h). Besides, the “difference of Cy5p53Tet signal between knockdown and control cells” value in the series with MDA-MB-468.shp53 cells (24 h) was “no statistically significant difference”. Further, the “retention of Cy5p53Tet in mtp53 R273H WHIM25 versus wtp53 WHIM6” value with WHIM6 and WHIM25 tumors is “longer”.

The values above are taken from US20210353784A1, “DETECTING AND TREATING CANCERS USING CELL PENETRANT MTP53-OLIGOMERIZATION-DOMAIN PEPTIDE” (priority 2020, published 2021).
